{"source": "patent US5939403A", "about": "“Keratan sulfate oligosaccharide fraction and pharmaceutical containing the same” (Seikagaku Corporation, priority 1994, dated 1999)", "key": {"carrageenin pleurisy": {"tested_on": "carrageenin pleurisy", "test": "Carrageenin pleurisy model", "format": "in vivo, Female S.D. rats", "details": "dexamethasone acetate 150 μg/kg s.c.; six hours", "experimental": "The effect of the keratan sulfate oligosaccharide was examined with the carrageenin pleurisy model of rats which is generally used for evaluation of anti-inflammatory agents.\nFemale S.D. rats (n=37) of about 150 to 170 g weight were used for the test. The λ-carrageenin (Sigma) was dissolved in saline to a concentration of 2%, and the solution was filtered with a 0.8 μm filter. The carrageenin solution obtained was intrathoracically administered at 100 μl/animal to prepare the pleurisy model.\nTo the pleurisy model of rats (n=19) described above, the keratan sulfate tetrasaccharide (I) dissolved in PBS was subcutaneously (s.c.) administered in 20 mg/kg or 10 mg/kg dose. And as the positive control, steroid (dexamethasone acetate; Banyu Pharmaceutical) was subcutaneously administered to the eight rats described above in 150 μg/kg which was the clinical dose. As the negative control, PBS was subcutaneously administered to the 10 rats. Each administration was carried out immediately after the administration of carrageenin.\nEach rat was anatomized six hours after the administration of λ-carrageenin. The thoracic cavity of the rats was opened to collect the retained pleural fluid using a 2-ml syringe with probe. After that, inside of the thoracic cavity was washed with 1 ml of saline, and the washing solution was recovered. The volume of the pleural fluid recovered with the syringe was determined, and the number of leukocyte (cell number) in the pleural fluid was determined by an automatic cytometer. The results are be shown in FIG. 8 and FIG. 9, respectively. In the figures, * and ** represent that they have the significant difference with p<0.05 and p<0.01, respectively (wherein \"p\" means a level of significance by the Duncan test)."}, "[1]": {"tested_on": "foot edema reversed passive Arthus reaction", "test": "Foot edema reversed passive Arthus reaction", "format": "in vivo, Male Crj:SD rats", "experimental": "The effect of the keratan sulfate oligosaccharide was examined on the foot edema reversed passive Arthus reaction of rats, which is a type III allergic inflammation model. That is, the rabbit antiovalbumin serum was subcutaneously administered to the planta of the rats which were previously subjected to the administration of the test substances, furthermore ovalbumin was administered by injection into the caudal vein thereof to induce inflammation (edema), and the inhibitory effect on edema of the test substances was examined.\nMale Crj:SD rats of five weeks old were subjected to a fast of about 17 hours after a week period of quarantine, and, before inducing inflammation, subjected to the administration of the purified keratan sulfate tetrasaccharide (I) which was prepared in Example 1, indomethacin (Sigma; Lot No. 19F0018), or dexamethasone (Banyu Pharmaceutical); Decadron injection; Lot No. 8D307P) as the test substances, or saline (Otsuka Pharmaceutical; Lot No. K3H72) as the negative control. The keratan sulfate tetrasaccharide (I) and dexamethasone were dissolved in saline, respectively, and the indomethacin was dissolved in 0.5% sodium carboxymethylcellulose (CMC-Na; Wako Pure Chemical Industries; Lot No. PTN1418) in use. The volume of dose was 0.5 ml per 100 g weight in each test. Concerning the route of administration, the keratan sulfate tetrasaccharide (I), saline, and dexamethasone were administered from the caudal vein, and the indomethacin was orally administered. And the substances except for indomethacin were administered by the blind method.\nThe dose and administration schedule of each test substance were as follows. Each group consisted of five animals.\nThe rabbit antiovalbumin serum was subcutaneously administered to each of the rats described above on the planta thereof, and ovalbumin was further administered by injection into the caudal vein to induce inflammation foot edema. The antiserum used was prepared as follows. That is, to the regions of back of rabbits, 1 ml of the equivalently mixed solution (emulsion) of the saline containing 2% ovalbumin (10 mg per one animal, Egg Albumin 5×Cryst, Lot No. P93601; Seikagaku Corporation) and the Freund's complete adjuvant (FCA) was intradermally injected once a week three times totally to subject themselves to sensitization. About 34 days after the last sensitization, the blood was drawn to obtain the antiserum. The antibody titer of the antiserum obtained was determined by the double layer method. Namely, the determination was performed using the white precipitation reaction of the antiserum diluted with saline and the saline containing 0.1% ovalbumin (1 mg/ml) as the indicator. As a result, the antibody titer of the antiserum obtained was x2^7.\nAfter the period which is designed for each group, each 0.1 ml of the sixfold diluted antiserum was subcutaneously administered to the planta of left rear foot of the rats which were subjected to the administration of each test substance. Then, the saline containing 0.5% ovalbumin (25 mg/5 ml/kg) was administered into the caudal vein to induce inflammation. The volume of the treated feet in each group was determined before inducing inflammation, and one, two, three and four hours after inducing inflammation by a foot volume determining device (TK-101, Unicom) to yield the foot edematization rate from the difference from the value before the induction, and the edematization inhibitory rate of the test substance administered group to the control group was calculated. In each edematization rate obtained, the difference between the averages was tested by the minimum significant difference test. The foot edematization rate and the edematization inhibitory rate of each administered group are shown in Table 9, and the foot edematization rate of the administered groups which was subjected to the administration of the agent at five minutes and at three hours before inducing inflammation are shown in FIG. 6 and FIG. 7, respectively. […]"}}, "data": [{"smiles": "CC(=O)OCC(=O)[C@@]1(O)[C@H](C)C[C@H]2[C@@H]3CCC4=CC(=O)C=C[C@]4(C)[C@@]3(F)[C@@H](O)C[C@@]21C", "note": "[Dexamethasone Acetate, dexamethasone acetate, reference compound]", "values": [{"measurement": "number of leukocyte in pleural fluid (FIG. 9)", "setting": "carrageenin pleurisy", "result": "significantly less than that in the control group"}, {"measurement": "quantity of pleural fluid (FIG. 8)", "setting": "carrageenin pleurisy", "result": "significantly less than that in the negative control group"}]}, {"smiles": "C[C@@H]1C[C@H]2[C@@H]3CCC4=CC(=O)C=C[C@]4(C)[C@@]3(F)[C@@H](O)C[C@]2(C)[C@@]1(O)C(=O)CO", "note": "[Dexamethasone, dexamethasone, reference compound]", "values": [{"measurement": "Inhibitory Rate", "setting": "[1]; 1 Hour Later, dexamethasone 1 mg/kg i.v. at 3 hours before inducing edema", "result": 47.8, "unit": "%"}, {"measurement": "Edematization Rate", "setting": "[1]; 1 Hour Later, dexamethasone 1 mg/kg i.v. at 3 hours before inducing edema, P < 0.01, control 40.9", "result": "21.3 ± 3.1", "unit": "%"}, {"measurement": "Inhibitory Rate", "setting": "[1]; 2 Hours Later, dexamethasone 1 mg/kg i.v. at 3 hours before inducing edema", "result": 31.7, "unit": "%"}, {"measurement": "Edematization Rate", "setting": "[1]; 2 Hours Later, dexamethasone 1 mg/kg i.v. at 3 hours before inducing edema, P < 0.01, control 46.3", "result": "31.6 ± 2.2", "unit": "%"}, {"measurement": "Inhibitory Rate", "setting": "[1]; 3 Hours Later, dexamethasone 1 mg/kg i.v. at 3 hours before inducing edema", "result": 39.9, "unit": "%"}, {"measurement": "Edematization Rate", "setting": "[1]; 3 Hours Later, dexamethasone 1 mg/kg i.v. at 3 hours before inducing edema, P < 0.01, control 51.2", "result": "30.7 ± 1.5", "unit": "%"}, {"measurement": "Inhibitory Rate", "setting": "[1]; 4 Hours Later, dexamethasone 1 mg/kg i.v. at 3 hours before inducing edema", "result": 58.1, "unit": "%"}, {"measurement": "Edematization Rate", "setting": "[1]; 4 Hours Later, dexamethasone 1 mg/kg i.v. at 3 hours before inducing edema, P < 0.01, control 44.9", "result": 18.8, "unit": "%"}, {"measurement": "foot edematization rate, significance (result in words)", "setting": "[1]; dexamethasone 1 mg/kg, three hours before", "result": "significantly low values were observed at any determination point between one and four hours after inducing inflammation"}]}, {"smiles": "COc1ccc2c(c1)c(CC(=O)O)c(C)n2C(=O)c1ccc(Cl)cc1", "note": "[Indomethacin, indomethacin, reference compound]", "values": [{"measurement": "Inhibitory Rate", "setting": "[1]; 1 Hour Later, 5 mg/kg oral at 30 minutes before inducing edema", "result": 13.5, "unit": "%"}, {"measurement": "Edematization Rate", "setting": "[1]; 1 Hour Later, 5 mg/kg oral at 30 minutes before inducing edema, control 40.9", "result": "35.4 ± 1.6", "unit": "%"}, {"measurement": "Inhibitory Rate", "setting": "[1]; 2 Hours Later, 5 mg/kg oral at 30 minutes before inducing edema", "result": 17.5, "unit": "%"}, {"measurement": "Edematization Rate", "setting": "[1]; 2 Hours Later, 5 mg/kg oral at 30 minutes before inducing edema, P < 0.05, control 46.3", "result": "38.2 ± 2.9", "unit": "%"}, {"measurement": "Inhibitory Rate", "setting": "[1]; 3 Hours Later, 5 mg/kg oral at 30 minutes before inducing edema", "result": 9.0, "unit": "%"}, {"measurement": "Edematization Rate", "setting": "[1]; 3 Hours Later, 5 mg/kg oral at 30 minutes before inducing edema, control 51.2", "result": "46.4 ± 2.8", "unit": "%"}, {"measurement": "Inhibitory Rate", "setting": "[1]; 4 Hours Later, 5 mg/kg oral at 30 minutes before inducing edema", "result": 13.8, "unit": "%"}, {"measurement": "Edematization Rate", "setting": "[1]; 4 Hours Later, 5 mg/kg oral at 30 minutes before inducing edema, P < 0.05, control 44.9", "result": "38.7 ± 3.1", "unit": "%"}, {"measurement": "foot edematization rate, significance (result in words)", "setting": "[1]; indomethacin 5 mg/kg oral, 30 minutes before", "result": "significantly low values were observed after two hours and after four hours"}]}]}
